{"source": "patent US11351173B2", "about": "“Substituted pyrrolo[1,2-a]pyrimidines and their use in the treatment of medical disorders” (Bial—R&D Investments, S.A., priority 2014, dated 2022)", "key": {"[1]": {"assay": "Compound solubility in water", "details": "water; for solubility: Compound Solubility in Water"}, "[2]": {"target": "T1, glucocerebrosidase (Gcase) (Homo sapiens, UniProt P04062)", "T1 construct": "micellar solution containing 10 nM GCase and 100 nM saposin C", "T1 sequence (P04062 40-536)": "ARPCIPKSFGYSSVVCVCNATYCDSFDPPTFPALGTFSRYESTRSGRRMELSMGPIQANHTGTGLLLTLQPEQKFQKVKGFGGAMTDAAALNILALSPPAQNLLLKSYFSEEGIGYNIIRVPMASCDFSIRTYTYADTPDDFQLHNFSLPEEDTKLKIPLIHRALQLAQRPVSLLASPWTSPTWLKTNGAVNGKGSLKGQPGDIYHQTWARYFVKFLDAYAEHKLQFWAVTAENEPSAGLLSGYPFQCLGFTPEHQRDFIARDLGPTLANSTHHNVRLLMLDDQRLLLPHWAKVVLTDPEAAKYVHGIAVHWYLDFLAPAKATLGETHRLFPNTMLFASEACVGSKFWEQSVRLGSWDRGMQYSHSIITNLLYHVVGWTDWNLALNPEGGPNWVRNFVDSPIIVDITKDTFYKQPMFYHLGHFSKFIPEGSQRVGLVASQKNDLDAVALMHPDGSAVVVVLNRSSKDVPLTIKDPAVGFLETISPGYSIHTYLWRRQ", "assay": "Glucocerebrosidase (Gcase) activation assay, 4-methylumbelliferyl-beta-D-glucopyranoside substrate, fluorescence readout", "format": "biochemical", "details": "for activation at 0.1 µM / Percent Gcase Activation, 0.1 μM Test Compound: test compound at 0.1 μM; for activation at 0.1 µM: read-out: Percent Gcase Activation, 0.1 μM Test Compound; for activation at 1 µM / Percent Gcase Activation, 1 μM Test Compound: test compound at 1.0 μM; for activation at 1 µM: read-out: Percent Gcase Activation, 1 μM Test Compound", "procedure,_shortened": "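Fluorescence (ex 365 nm, em 440 nm) read after glycine pH 12.5 stop of a 15 min room-temperature reaction. GCase 10 nM plus saposin C 100 nM in PS/triton micelles, pH 4.7, preincubated 30 min with compound; substrate solution held 2 mM 4-MU-beta-glucoside. Screened at 1.0 and 0.1 μM; 8-point, 3-fold curves from 5 μM top.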"}}}
{"smiles": "CCCCOC(=O)N1CC(NC(=O)c2ccn3c(C)cc(C)nc23)C1", "note": "[III-137]", "values": [{"measurement": "solubility", "setting": "[1]", "value": 15.5, "unit": "µg/mL"}, {"measurement": "activation at 0.1 µM", "setting": "[2]", "value": "< 10", "unit": "%"}, {"measurement": "activation at 1 µM", "setting": "[2]", "value": "< 30", "unit": "%"}]}
{"smiles": "Cc1cc(C)n2ccc(C(=O)NC3CCCC34CCCCO4)c2n1", "note": "(stereo not drawn) [III-138]", "values": [{"measurement": "Compound Solubility in Water", "setting": "[1]", "value": 33.7, "unit": "µg/mL"}, {"measurement": "activation at 0.1 µM", "setting": "[2]", "value": "10 to 20", "unit": "%"}, {"measurement": "activation at 1 µM", "setting": "[2]", "value": "> 60", "unit": "%"}]}
{"smiles": "Cc1cc(C)n2ccc(C(=O)NC3CCCC34CCCCO4)c2n1", "note": "(stereo not drawn) [III-139]", "values": [{"measurement": "Compound Solubility in Water", "setting": "[1]", "value": 1.4, "unit": "µg/mL"}, {"measurement": "Percent Gcase Activation, 0.1 μM Test Compound", "setting": "[2]", "value": "* (less than 10% Gcase activation)"}, {"measurement": "Percent Gcase Activation, 1 μM Test Compound", "setting": "[2]", "value": "+++ (Gcase activation greater than 60%)"}]}
{"smiles": "Cc1cc(C)n2ccc(C(=O)NC3CCC4(CCCO4)CC3)c2n1", "note": "(stereo not drawn) [III-141]", "values": [{"measurement": "solubility", "setting": "[1]", "value": 17, "unit": "µg/mL"}, {"measurement": "activation at 0.1 µM", "setting": "[2]", "value": "< 10", "unit": "%"}, {"measurement": "activation at 1 µM", "setting": "[2]", "value": "< 30", "unit": "%"}]}
{"smiles": "Cc1cc(C)n2ccc(C(=O)NC3CCC4(CCCO4)CC3)c2n1", "note": "(stereo not drawn) [III-142]", "values": [{"measurement": "Compound Solubility in Water", "setting": "[1]", "value": 17.4, "unit": "µg/mL"}, {"measurement": "Percent Gcase Activation, 0.1 μM Test Compound", "setting": "[2]", "value": "* (less than 10% Gcase activation)"}, {"measurement": "Percent Gcase Activation, 1 μM Test Compound", "setting": "[2]", "value": "+ (less than 30% Gcase activation)"}]}
{"smiles": "Cc1cc(C)n2ccc(C(=O)NC3CCC4(CCCO4)c4ccccc43)c2n1", "note": "(stereo not drawn) [III-143]", "values": [{"measurement": "solubility", "setting": "[1]", "value": 3.3, "unit": "µg/mL"}, {"measurement": "activation at 0.1 µM", "setting": "[2]", "value": "> 20", "unit": "%"}, {"measurement": "activation at 1 µM", "setting": "[2]", "value": "> 60", "unit": "%"}]}
{"smiles": "Cc1cc(C)n2ccc(C(=O)NC3CC=C(CCCO)c4ccccc43)c2n1", "note": "(stereo not drawn) [III-144]", "values": [{"measurement": "solubility", "setting": "[1]", "value": 0.8, "unit": "µg/mL"}, {"measurement": "activation at 0.1 µM", "setting": "[2]", "value": "10 to 20", "unit": "%"}, {"measurement": "activation at 1 µM", "setting": "[2]", "value": "> 60", "unit": "%"}]}
{"smiles": "CCCCCO[C@@H]1CC[C@H](NC(=O)c2ccn3c(C)cc(C)nc23)C1", "note": "[III-145]", "values": [{"measurement": "Compound Solubility in Water", "setting": "[1]", "value": 2.3, "unit": "µg/mL"}, {"measurement": "activation at 0.1 µM", "setting": "[2]", "value": "10 to 20", "unit": "%"}, {"measurement": "activation at 1 µM", "setting": "[2]", "value": "> 60", "unit": "%"}]}
{"smiles": "Cc1cc(C)n2ccc(C(=O)NC3CCC4(CCCO4)C3)c2n1", "note": "(stereo not drawn) [III-146]", "values": [{"measurement": "solubility", "setting": "[1]", "value": 25.4, "unit": "µg/mL"}, {"measurement": "activation at 0.1 µM", "setting": "[2]", "value": "< 10", "unit": "%"}, {"measurement": "activation at 1 µM", "setting": "[2]", "value": "< 30", "unit": "%"}]}
{"smiles": "Cc1cc(C)n2ccc(C(=O)NC3CCC4(CCCO4)C3)c2n1", "note": "(stereo not drawn) [III-147]", "values": [{"measurement": "Compound Solubility in Water", "setting": "[1]", "value": 20.4, "unit": "µg/mL"}, {"measurement": "Percent Gcase Activation, 0.1 μM Test Compound", "setting": "[2]", "value": "* (less than 10% Gcase activation)"}, {"measurement": "Percent Gcase Activation, 1 μM Test Compound", "setting": "[2]", "value": "+ (less than 30% Gcase activation)"}]}
{"smiles": "Cc1cc(C)n2ccc(C(=O)Nc3ccc4c(c3)CCC4)c2n1", "note": "[III-148]", "values": [{"measurement": "solubility", "setting": "[1]", "value": 0.06, "unit": "µg/mL"}, {"measurement": "activation at 0.1 µM", "setting": "[2]", "value": "> 20", "unit": "%"}, {"measurement": "activation at 1 µM", "setting": "[2]", "value": "> 60", "unit": "%"}]}
{"smiles": "Cc1cc(C)n2ccc(C(=O)Nc3ccc(C)c(-c4ncco4)c3)c2n1", "note": "[III-149]", "values": [{"measurement": "solubility", "setting": "[1]", "value": "< 1.5", "unit": "µg/mL"}, {"measurement": "activation at 0.1 µM", "setting": "[2]", "value": "> 20", "unit": "%"}, {"measurement": "activation at 1 µM", "setting": "[2]", "value": "> 60", "unit": "%"}]}
{"smiles": "Cc1cc(C)n2ccc(C(=O)Nc3ccc(-c4ncco4)cc3C)c2n1", "note": "[III-150]", "values": [{"measurement": "solubility", "setting": "[1]", "value": 0.1, "unit": "µg/mL"}, {"measurement": "activation at 0.1 µM", "setting": "[2]", "value": "> 20", "unit": "%"}, {"measurement": "activation at 1 µM", "setting": "[2]", "value": "> 60", "unit": "%"}]}
{"smiles": "Cc1cc(C)n2ccc(C(=O)NC3CCCc4cnccc43)c2n1", "note": "(stereo not drawn) [III-151]", "values": [{"measurement": "solubility", "setting": "[1]", "value": 16.2, "unit": "µg/mL"}, {"measurement": "activation at 0.1 µM", "setting": "[2]", "value": "< 10", "unit": "%"}, {"measurement": "activation at 1 µM", "setting": "[2]", "value": "< 30", "unit": "%"}]}
{"smiles": "Cc1cc(C)n2ccc(C(=O)NC3CCCCC34CCCCO4)c2n1", "note": "(stereo not drawn) [III-152]", "values": [{"measurement": "solubility", "setting": "[1]", "value": 6.7, "unit": "µg/mL"}, {"measurement": "activation at 0.1 µM", "setting": "[2]", "value": "10 to 20", "unit": "%"}, {"measurement": "activation at 1 µM", "setting": "[2]", "value": "> 60", "unit": "%"}]}
{"smiles": "Cc1cc(C)n2ccc(C(=O)NCC3CCC(F)(F)CC3)c2n1", "note": "[III-153]", "values": [{"measurement": "solubility", "setting": "[1]", "value": 15.3, "unit": "µg/mL"}, {"measurement": "activation at 0.1 µM", "setting": "[2]", "value": "10 to 20", "unit": "%"}, {"measurement": "activation at 1 µM", "setting": "[2]", "value": "30 to 60", "unit": "%"}]}
{"smiles": "CCCCCO[C@H]1CC[C@H](NC(=O)c2ccn3c(COC)cc(COC)nc23)CC1", "note": "[III-154]", "values": [{"measurement": "solubility", "setting": "[1]", "value": 10.6, "unit": "µg/mL"}, {"measurement": "activation at 0.1 µM", "setting": "[2]", "value": "> 20", "unit": "%"}, {"measurement": "activation at 1 µM", "setting": "[2]", "value": "> 60", "unit": "%"}]}
{"smiles": "COCc1cc(COC)n2ccc(C(=O)NC3(C)CCOc4cc(F)c(F)cc43)c2n1", "note": "(stereo not drawn) [III-155]", "values": [{"measurement": "solubility", "setting": "[1]", "value": 2.1, "unit": "µg/mL"}, {"measurement": "activation at 0.1 µM", "setting": "[2]", "value": "10 to 20", "unit": "%"}, {"measurement": "activation at 1 µM", "setting": "[2]", "value": "> 60", "unit": "%"}]}
{"smiles": "C#Cc1ccc(C(C)(C)NC(=O)c2ccn3c(COC)cc(COC)nc23)cc1", "note": "[III-156]", "values": [{"measurement": "solubility", "setting": "[1]", "value": 13.9, "unit": "µg/mL"}, {"measurement": "activation at 0.1 µM", "setting": "[2]", "value": "10 to 20", "unit": "%"}, {"measurement": "activation at 1 µM", "setting": "[2]", "value": "> 60", "unit": "%"}]}
{"smiles": "C#Cc1cccc(C(C)(C)NC(=O)c2ccn3c(COC)cc(COC)nc23)c1", "note": "[III-157]", "values": [{"measurement": "solubility", "setting": "[1]", "value": 2.6, "unit": "µg/mL"}, {"measurement": "activation at 0.1 µM", "setting": "[2]", "value": "> 20", "unit": "%"}, {"measurement": "activation at 1 µM", "setting": "[2]", "value": "> 60", "unit": "%"}]}
{"smiles": "[2H]c1c(C([2H])([2H])[2H])nc2c(C(=O)Nc3ccc(-c4cocn4)cc3)cc([2H])n2c1C([2H])([2H])[2H]", "note": "[III-158]", "values": [{"measurement": "solubility", "setting": "[1]", "value": 0.07, "unit": "µg/mL"}, {"measurement": "activation at 0.1 µM", "setting": "[2]", "value": "> 20", "unit": "%"}, {"measurement": "activation at 1 µM", "setting": "[2]", "value": "> 60", "unit": "%"}]}
{"smiles": "[2H]c1c(C([2H])([2H])[2H])nc2c(C(=O)NC3(C)CCOc4ccccc43)cc([2H])n2c1C([2H])([2H])[2H]", "note": "(stereo not drawn) [III-159]", "values": [{"measurement": "solubility", "setting": "[1]", "value": 4.9, "unit": "µg/mL"}, {"measurement": "activation at 0.1 µM", "setting": "[2]", "value": "> 20", "unit": "%"}, {"measurement": "activation at 1 µM", "setting": "[2]", "value": "> 60", "unit": "%"}]}
{"smiles": "[2H]c1c(C([2H])([2H])[2H])nc2c(C(=O)NC(C)(C)c3ccc(F)cc3)cc([2H])n2c1C([2H])([2H])[2H]", "note": "[III-160]", "values": [{"measurement": "solubility", "setting": "[1]", "value": 1.6, "unit": "µg/mL"}, {"measurement": "activation at 0.1 µM", "setting": "[2]", "value": "> 20", "unit": "%"}, {"measurement": "activation at 1 µM", "setting": "[2]", "value": "> 60", "unit": "%"}]}
{"smiles": "O=C(N[C@H]1CCCc2ccccc21)c1ccn2c(C3CC3)ccnc12", "note": "[III-161]", "values": [{"measurement": "solubility", "setting": "[1]", "value": 0.9, "unit": "µg/mL"}, {"measurement": "activation at 0.1 µM", "setting": "[2]", "value": "< 10", "unit": "%"}, {"measurement": "activation at 1 µM", "setting": "[2]", "value": "30 to 60", "unit": "%"}]}
